Measurements as given in patent US20040116464A1, “Aryl-ethanolamine derivatives as antiviral agents” (priority 2002, published 2004).
Like-named read-outs stand apart in the source and are kept apart here.

Columns and labels:
HCMV polymerase = molecular target: T1, HCMV polymerase (Human cytomegalovirus, UniProt P08546); assay: HCMV polymerase scintillation proximity assay; type: biochemical
T1 construct: made in house; host or cells: recombinant baculovirus-infected SF-9 cells
Method: The HCMV polymerase assay is performed using a scintillation proximity assay (SPA) as described in several references, such as N. D. Cook, et al., Pharmaceutical Manufacturing International, pages 49-53 (1992); K Takeuchi, Laboratory Practice, September issue (1992); U.S. Pat. No. 4,568,649 (1986); which are incorporated by reference herein. Reactions are performed in 96-well plates. The assay is conducted in 100 μl volume with 5.4 mM HEPES (pH 7.5), 11.7 mM KCl, 4.5 mM MgCl2, 0.36 mg/ml BSA, and 90 nM ^3H-dTTP. Assays are run with and without CHAPS, (3-[(3-Cholamidopropyl)-dimethylammonio]-1-propane-sulfonate) at a final concentration of 2 mM. HCMV polymerase is diluted in enzyme dilution buffer containing 50% glycerol, 250 mM NaCl, 10 mM HEPES (pH 7.5), 100 μg/ml BSA, and 0.01% sodium azide. The HCMV polymerase, which is expressed in recombinant baculovirus-infected SF-9 cells and purified according to literature procedures, is added at 10% (or 10 μl) of the final reaction volume, i.e., 100 μl. Compounds are diluted in 50% DMSO and 10 μl are added to each well. Control wells contain an equivalent concentration of DMSO. Unless noted otherwise, reactions are initiated via the addition of 6 nM biotinylated poly(dA)-oligo(dT) template/primer to reaction mixtures containing the enzyme, substrate, and compounds of interest. Plates are incubated in a 25° C. or 37° C. H2O bath and terminated via the addition of 40 μl/reaction of 0.5 M EDTA (pH 8) per well. Reactions are terminated within the time-frame during which substrate incorporation is linear and varied depending upon the enzyme and conditions used, i.e., 30 min. for HCMV polymerase. Ten (10) μl of streptavidin-SPA beads (20 mg/ml in PBS/10% glycerol) are added following termination of the reaction. Plates are incubated 10 min. at 37° C., then equilibrated to room temperature, and counted on a Packard Topcount. Linear regressions are performed and IC50's are calculated using computer software.
A modified version of the above HCMV polymerase assay is performed as described above, but with the following changes: Compounds are diluted in 100% DMSO until final dilution into assay buffer. In the previous assay, compounds are diluted in 50% DMSO. 4.5 mM Dithiothreitol (DTT) is added to the polymerase buffer.
All results are listed as Polymerase IC50 (μM) values. In Table 1, the term “n.d.” refers to activity data not determined.

HSV polymerase = HSV polymerase (Human herpesvirus 1, UniProt P04293); assay: HSV polymerase assay (Table 1); type: biochemical
Sequence of HSV polymerase (P04293 whole entry): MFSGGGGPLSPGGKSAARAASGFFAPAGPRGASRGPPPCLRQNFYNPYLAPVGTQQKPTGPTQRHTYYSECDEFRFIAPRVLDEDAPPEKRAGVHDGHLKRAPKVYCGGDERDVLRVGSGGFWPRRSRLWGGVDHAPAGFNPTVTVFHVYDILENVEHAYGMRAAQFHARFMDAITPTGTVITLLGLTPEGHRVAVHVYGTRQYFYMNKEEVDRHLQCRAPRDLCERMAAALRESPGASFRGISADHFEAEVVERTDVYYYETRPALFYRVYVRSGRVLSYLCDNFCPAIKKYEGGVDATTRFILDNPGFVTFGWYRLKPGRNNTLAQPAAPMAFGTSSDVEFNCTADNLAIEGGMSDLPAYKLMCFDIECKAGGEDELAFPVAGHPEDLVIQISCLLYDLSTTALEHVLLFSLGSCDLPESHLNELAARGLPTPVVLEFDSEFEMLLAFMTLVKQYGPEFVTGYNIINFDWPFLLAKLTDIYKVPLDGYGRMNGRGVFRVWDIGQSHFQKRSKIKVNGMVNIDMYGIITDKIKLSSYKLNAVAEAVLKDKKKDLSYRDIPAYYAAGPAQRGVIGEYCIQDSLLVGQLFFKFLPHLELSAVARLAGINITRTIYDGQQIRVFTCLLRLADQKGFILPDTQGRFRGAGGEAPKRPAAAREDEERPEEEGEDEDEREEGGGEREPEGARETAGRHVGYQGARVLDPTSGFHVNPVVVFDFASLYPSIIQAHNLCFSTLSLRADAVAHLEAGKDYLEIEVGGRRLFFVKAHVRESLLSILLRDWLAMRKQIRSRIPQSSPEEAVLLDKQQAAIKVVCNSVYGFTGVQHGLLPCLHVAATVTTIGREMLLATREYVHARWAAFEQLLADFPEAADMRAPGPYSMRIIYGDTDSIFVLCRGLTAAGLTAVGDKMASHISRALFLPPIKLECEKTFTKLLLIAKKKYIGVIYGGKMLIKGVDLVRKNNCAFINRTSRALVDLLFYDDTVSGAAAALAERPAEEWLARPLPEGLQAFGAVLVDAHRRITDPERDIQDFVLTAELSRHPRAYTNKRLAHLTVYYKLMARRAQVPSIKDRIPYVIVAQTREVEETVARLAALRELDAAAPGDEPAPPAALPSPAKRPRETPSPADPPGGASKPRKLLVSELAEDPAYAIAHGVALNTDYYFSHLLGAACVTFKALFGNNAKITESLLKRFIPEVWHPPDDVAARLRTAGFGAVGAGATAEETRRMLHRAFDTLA

VZV polymerase = VZV polymerase (Varicella-zoster virus, UniProt P09252); assay: VZV polymerase assay (Table 1); type: biochemical
Sequence of VZV polymerase (P09252 whole entry): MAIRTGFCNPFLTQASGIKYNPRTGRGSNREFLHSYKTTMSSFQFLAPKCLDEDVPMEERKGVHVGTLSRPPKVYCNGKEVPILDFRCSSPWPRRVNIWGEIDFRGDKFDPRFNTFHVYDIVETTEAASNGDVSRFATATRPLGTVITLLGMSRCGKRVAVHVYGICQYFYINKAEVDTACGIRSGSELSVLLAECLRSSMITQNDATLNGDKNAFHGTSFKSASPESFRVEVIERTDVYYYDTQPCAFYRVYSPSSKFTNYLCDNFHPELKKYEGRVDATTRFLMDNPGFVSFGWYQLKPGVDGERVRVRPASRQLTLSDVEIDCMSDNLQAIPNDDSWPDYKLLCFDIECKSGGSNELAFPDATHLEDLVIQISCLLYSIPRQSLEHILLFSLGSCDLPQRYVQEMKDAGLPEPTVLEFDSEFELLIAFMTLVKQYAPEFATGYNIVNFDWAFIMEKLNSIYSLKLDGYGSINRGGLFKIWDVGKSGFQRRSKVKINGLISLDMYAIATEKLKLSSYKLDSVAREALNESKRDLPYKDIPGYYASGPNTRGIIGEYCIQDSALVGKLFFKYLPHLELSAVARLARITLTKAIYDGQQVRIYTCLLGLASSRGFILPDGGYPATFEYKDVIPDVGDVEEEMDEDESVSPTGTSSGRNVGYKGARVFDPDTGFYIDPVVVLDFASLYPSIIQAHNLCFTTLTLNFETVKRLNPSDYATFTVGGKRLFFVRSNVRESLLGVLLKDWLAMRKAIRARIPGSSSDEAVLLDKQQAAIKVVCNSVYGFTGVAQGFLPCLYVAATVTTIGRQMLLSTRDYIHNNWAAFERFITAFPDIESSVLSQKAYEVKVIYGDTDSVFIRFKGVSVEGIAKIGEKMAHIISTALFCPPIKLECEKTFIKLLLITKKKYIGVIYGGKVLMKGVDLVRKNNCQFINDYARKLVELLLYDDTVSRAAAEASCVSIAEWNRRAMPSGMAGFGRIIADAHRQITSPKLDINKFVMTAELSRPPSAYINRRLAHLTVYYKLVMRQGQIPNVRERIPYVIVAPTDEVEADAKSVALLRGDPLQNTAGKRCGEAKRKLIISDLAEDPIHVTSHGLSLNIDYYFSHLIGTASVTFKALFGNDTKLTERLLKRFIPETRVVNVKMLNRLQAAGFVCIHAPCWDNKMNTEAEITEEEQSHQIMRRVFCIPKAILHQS

T1 sequence (P08546 whole entry): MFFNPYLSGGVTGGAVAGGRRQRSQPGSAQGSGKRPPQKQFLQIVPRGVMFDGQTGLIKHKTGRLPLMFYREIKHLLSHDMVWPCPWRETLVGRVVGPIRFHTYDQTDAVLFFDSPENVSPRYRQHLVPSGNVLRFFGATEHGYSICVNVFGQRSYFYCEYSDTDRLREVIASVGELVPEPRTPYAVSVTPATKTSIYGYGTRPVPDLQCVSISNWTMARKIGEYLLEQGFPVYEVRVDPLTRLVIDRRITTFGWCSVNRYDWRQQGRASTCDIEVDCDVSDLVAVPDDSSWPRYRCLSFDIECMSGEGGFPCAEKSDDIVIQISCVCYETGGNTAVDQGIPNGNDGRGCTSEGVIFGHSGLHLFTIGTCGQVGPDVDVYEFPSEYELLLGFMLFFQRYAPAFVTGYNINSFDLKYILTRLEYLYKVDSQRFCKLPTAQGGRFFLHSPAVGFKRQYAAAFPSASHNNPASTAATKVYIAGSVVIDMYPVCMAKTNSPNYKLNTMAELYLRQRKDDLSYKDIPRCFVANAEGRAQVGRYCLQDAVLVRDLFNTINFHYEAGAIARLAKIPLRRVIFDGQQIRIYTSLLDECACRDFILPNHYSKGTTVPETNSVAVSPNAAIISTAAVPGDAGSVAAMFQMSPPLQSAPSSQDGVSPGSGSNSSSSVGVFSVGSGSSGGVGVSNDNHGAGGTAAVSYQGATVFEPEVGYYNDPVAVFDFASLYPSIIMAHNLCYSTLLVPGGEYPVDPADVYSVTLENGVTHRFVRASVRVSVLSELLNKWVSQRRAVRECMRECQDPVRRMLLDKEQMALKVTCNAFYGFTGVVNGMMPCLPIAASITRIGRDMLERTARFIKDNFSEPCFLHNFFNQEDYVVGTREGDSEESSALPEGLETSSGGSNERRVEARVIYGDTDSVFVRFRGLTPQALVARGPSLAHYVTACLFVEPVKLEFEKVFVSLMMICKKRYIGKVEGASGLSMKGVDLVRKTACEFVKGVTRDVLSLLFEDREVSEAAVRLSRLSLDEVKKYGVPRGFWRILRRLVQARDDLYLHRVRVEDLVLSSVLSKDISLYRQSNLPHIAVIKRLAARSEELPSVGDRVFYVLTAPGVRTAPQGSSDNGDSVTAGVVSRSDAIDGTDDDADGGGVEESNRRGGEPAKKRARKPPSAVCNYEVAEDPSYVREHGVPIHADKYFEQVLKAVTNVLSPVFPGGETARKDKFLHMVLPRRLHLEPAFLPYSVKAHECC

IC50 (HCMV polymerase; read-out: Polymerase IC50 HCMV) [nM]	IC50 (HSV polymerase) [nM]	IC50 (VZV polymerase) [nM]	melting point [°C]	SMILES	IC50 (HCMV polymerase) [nM]
210	620	230	–	CN(Cc1cc2c(=O)c(C(=O)NCc3ccc(Cl)cc3)cn(C)c2s1)C[C@@H](O)c1ccc(N(C)C)cc1 (single isomer, unassigned) [Example 12]	–
–	–	–	–	CN(Cc1cc2c(=O)c(C(=O)NCc3ccc(Cl)cc3)cn(CCCO)c2s1)C[C@@H](O)c1ccccc1 [Example 4, N-(4-chlorobenzyl)-2-((((2S)-2-hydroxy-2-phenylethyl)(methyl)amino)methyl)-7-(3-hydroxypropyl)-4-oxo-4,7-dihydrothieno[2,3-b]pyridine-5-carboxamide]	1400
1770	–	–	–	CN(Cc1cc2c(=O)c(C(=O)NCc3ccc(Cl)cc3)cn(CC(O)CO)c2s1)C[C@@H](O)c1ccccc1 (stereo partly drawn) [Example 3, N-(4-Chlorobenzyl)-7-(2,3-dihydroxypropyl)-2-((((2S)-2-hydroxy-2-phenylethyl)-(methyl)amino)methyl)-4-oxo-4,7-dihydrothieno[2,3-b]pyridine-5-carboxamide]	–
470	–	–	100 to 102	CCn1cc(C(=O)NCc2ccc(Cl)cc2)c(=O)c2cc(CN(C)C[C@@H](O)c3ccccc3)sc21 [Example 7, N-(4-Chlorobenzyl)-7-ethyl-2-((((2S)-2-hydroxy-2-phenylethyl)(methyl)amino)methyl)-4-oxo-4,7-dihydrothieno[2,3-b]pyridine-5-carboxamide]	–
100	210	110	–	CN(Cc1cc2c(=O)c(C(=O)NCc3ccc(Cl)cc3)cn(C)c2s1)C[C@@H](O)c1cccc(C#N)c1 (single isomer, unassigned) [Example 11]	–
130	580	200	–	CN(Cc1cc2c(=O)c(C(=O)NCc3ccc(Cl)cc3)cn(C)c2s1)C[C@@H](O)c1ccc(CO)cc1 (single isomer, unassigned) [Example 13]	–
50	200	80	–	CN(Cc1cc2c(=O)c(C(=O)NCc3ccc(Cl)cc3)cn(C)c2s1)C[C@@H](O)c1ccc(O)cc1 [Example 1, N-(4-Chlorobenzyl)-2-((((2S)-2-hydroxy-2-(4-hydroxyphenyl)ethyl)(methyl)-amino)methyl)-7-methyl-4-oxo-4,7-dihydrothieno[2,3-b]pyridine-5-carboxamide]	–
340	–	–	–	CN(Cc1cc2c(=O)c(C(=O)NCc3ccc(Cl)cc3)cn(C)c2s1)C[C@@H](O)c1ccc(C#N)cc1 (single isomer, unassigned) [Example 10]	–
620	1720	–	181 to 183	CN(Cc1cc2c(=O)c(C(=O)NCc3ccc(Cl)cc3)cn(C)c2s1)C[C@@H](O)c1ccc([N+](=O)[O-])cc1 (single isomer, unassigned) [Example 14]	–
320	–	–	105 to 106	COCCn1cc(C(=O)NCc2ccc(Cl)cc2)c(=O)c2cc(CN(C)C[C@@H](O)c3ccccc3)sc21 [Example 9, N-(4-Chlorobenzyl)-2-((((2S)-2-hydroxy-2-phenylethyl)(methyl)amino)methyl)-7-(2-methoxyethyl)-4-oxo-4,7-dihydrothieno[2,3-b]pyridine-5-carboxamide]	–
60	160	90	–	COc1cccc([C@H](O)CN(C)Cc2cc3c(=O)c(C(=O)NCc4ccc(Cl)cc4)cn(C)c3s2)c1 (single isomer, unassigned) [Example 6]	–
2020	–	–	–	CN(Cc1cc2c(=O)c(C(=O)NCc3ccc(Cl)cc3)cn(CCO)c2s1)C[C@@H](O)c1ccccc1 [Example 5, N-(4-Chlorobenzyl)-7-(2-hydroxyethyl)-2-((((2S)-2-hydroxy-2-phenylethyl)-(methyl)amino)methyl)-4-oxo-4,7-dihydrothieno[2,3-b]pyridine-5-carboxamide]	–
620	–	–	45 to 48	CCCn1cc(C(=O)NCc2ccc(Cl)cc2)c(=O)c2cc(CN(C)C[C@@H](O)c3ccccc3)sc21 [Example 8, N-(4-Chlorobenzyl)-2-((((2S)-2-hydroxy-2-phenylethyl)(methyl)amino)methyl)-4-oxo-7-propyl-4,7-dihydrothieno[2,3-b]pyridine-5-carboxamide]	–

SMILES	IC50 (HCMV polymerase; read-out: Polymerase IC50 HCMV) [nM]	IC50 (HSV polymerase) [nM]	IC50 (VZV polymerase) [nM]	melting point [°C]	IC50 (HCMV polymerase) [nM]
CN(Cc1cc2c(=O)c(C(=O)NCc3ccc(Cl)cc3)cn(C)c2s1)C[C@@H](O)c1ccccc1 [Example 2, N-(4-Chlorobenzyl)-2-((((2S)-2-hydroxy-2-phenylethyl)(methyl)amino)methyl)-7-methyl-4-oxo-4,7-dihydrothieno[2,3-b]pyridine-5-carboxamide]	–	400	200	162 to 164	[…]
